{"source": "patent US20240279710A1", "about": "“FLUORESCENT PROBES” (TOHOKU TECHNO ARCH CO., LTD., priority 2021, published 2024)", "key": {"SH-SY5Y cells": {"system": "SH-SY5Y cells", "experiment": "Live cell imaging of calpain activity in SH-SY5Y cells", "assay_type": "cell-based", "conditions": "5 μM probe, 10 minutes incubation, confocal microscope; FIG. 12", "procedure": "Whether or not the improvement in enzymatic reactivity between the compound of the present invention and a calpain confirmed by the above-mentioned experiment remained the same even in a cell was verified. Calpain activity imaging in SH-SY5Y cells was performed on each of Compounds 16 and 19. Specifically, the SH-SY5Y cells (American Type Culture Collection, VA, USA) were cultured in a mixed medium of Dulbecco's modified eagle medium and Ham's F-12 medium (DMEM/F-12; Thermo Fisher Scientific, Inc.) (containing 10% fetal bovine serum (FBS; Thermo Fisher Scientific, Inc., MA, USA) and 100 U/mL penicillin-100 μg/mL streptomycin (PS; Thermo Fisher Scientific, Inc.)) under the conditions of 37° C. and 5% CO2-95% air. 6×10^4 to 8×10^4 Cells/well of the cells were seeded in a multiwell plate (μ-Plate 96 Well; ibidi, Grafelfing, Germany) coated with poly-D-lysine (Thermo Fisher Scientific, Inc.) and laminin (BD Biosciences, CA, USA), and were preincubated in a culture solution. Immediately after the removal of the culture solution in the wells, 200 μL of an assay solution (a culture solution containing a 5 μM probe) was added thereto, and the cells were incubated under the conditions of 37° C. and 5% CO2-95% air. 10 Minutes after that, a bright field image and a fluorescence image were taken with a confocal microscope (LSM 710, Carl Zeiss AG, Oberkochen, Germany).\nCalpain activity imaging in SH-SY5Y cells was performed on each of Compounds 20 to 23, Compound 38, and Compound 56 in the same manner as in Example 9. In the case of each of Compounds 20 to 23 and Compound 38, a bright field image and a fluorescence image were taken after 30 minutes of incubation of the cells, and in the case of Compound 56, such images were taken after 20 minutes of incubation thereof."}, "[1]": {"molecular_target": "T1, calpain-1 from human erythrocytes (Homo sapiens, UniProt P07384)", "T1 construct": "calpain-1 from human erythrocytes; purchased Merck Millipore 208713; host or cells: human erythrocytes (natural source)", "T1 sequence (P07384 1-714)": "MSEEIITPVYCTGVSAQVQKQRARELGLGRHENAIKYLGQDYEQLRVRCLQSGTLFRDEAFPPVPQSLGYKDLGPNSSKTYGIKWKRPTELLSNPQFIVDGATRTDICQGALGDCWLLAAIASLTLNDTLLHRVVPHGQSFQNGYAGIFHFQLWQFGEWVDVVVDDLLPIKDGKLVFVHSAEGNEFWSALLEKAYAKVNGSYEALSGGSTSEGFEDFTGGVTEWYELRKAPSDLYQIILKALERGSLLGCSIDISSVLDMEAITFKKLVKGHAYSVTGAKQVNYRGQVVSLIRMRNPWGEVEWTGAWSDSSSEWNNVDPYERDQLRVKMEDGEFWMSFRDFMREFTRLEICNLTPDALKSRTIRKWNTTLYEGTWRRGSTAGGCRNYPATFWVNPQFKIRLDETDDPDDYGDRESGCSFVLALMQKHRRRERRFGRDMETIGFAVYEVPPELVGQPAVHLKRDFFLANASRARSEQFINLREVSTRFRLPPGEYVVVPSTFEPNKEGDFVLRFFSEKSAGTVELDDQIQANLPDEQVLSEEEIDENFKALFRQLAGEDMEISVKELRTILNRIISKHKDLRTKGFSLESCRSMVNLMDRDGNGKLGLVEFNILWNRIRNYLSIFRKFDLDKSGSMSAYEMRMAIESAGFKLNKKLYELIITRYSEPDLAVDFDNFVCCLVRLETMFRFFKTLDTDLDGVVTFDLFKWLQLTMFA", "T1 sequence (P04632 1-268 partner)": "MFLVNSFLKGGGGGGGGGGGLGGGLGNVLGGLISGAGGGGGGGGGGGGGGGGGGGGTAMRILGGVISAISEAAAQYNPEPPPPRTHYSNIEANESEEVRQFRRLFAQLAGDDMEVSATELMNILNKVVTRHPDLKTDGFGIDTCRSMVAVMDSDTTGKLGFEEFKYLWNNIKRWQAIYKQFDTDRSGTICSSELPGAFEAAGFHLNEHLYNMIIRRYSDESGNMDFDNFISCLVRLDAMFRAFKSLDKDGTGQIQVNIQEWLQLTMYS", "experiment": "Fluorescence assay with calpain-1", "assay_type": "biochemical", "conditions": "10 μM probe, 17.4 U/mL calpain-1, 5 mM CaCl2, 37° C., excitation 475 nm, fluorescence 500-550 nm; for increase in fluorescence intensity 10 minutes after the addition of calpain-1: FIG. 5(b)", "procedure": "The fluorescence assays of Compound 19 and Compound 16 with time were performed. Specifically, 17.4 U/mL of calpain-1 and 5 mM CaCl2 were added to a 50 mM TRIS buffer (pH: 7.4, 2 mM EGTA, 2 mM DTE) containing 10 μM of each of the synthesized fluorescent probes to perform an enzyme reaction at 37° C. Each of the compounds to which calpain-1 and CaCl2 were not added was similarly subjected as a negative control to the measurement.\nThe fluorescence assays of Compounds 16 to 36 were similarly performed. 50 Units per milliliter (Compounds 16 and 19 to 25) or 17.4 U/mL (Compounds 16 to 18 and 26 to 36) of calpain-1 and 5 mM CaCl2 were added to a 50 mM TRIS buffer (pH: 7.4, 2 mM EGTA, 2 mM DTE) containing 10 μM of each of the synthesized fluorescent probes to perform an enzyme reaction at 37° C.\nNext, similar fluorescence assays of Compounds 37, 42, 45, 48, 51, 53, 55, 57, and 59 with calpain-1 were performed. Specifically, 17.4 U/mL of calpain-1 and 5 mM CaCl2 were added to a 50 mM TRIS buffer (pH: 7.4, 2 mM EGTA, 2 mM DTE) containing 10 μM of each of the synthesized fluorescent probes to perform an enzyme reaction at 37° C. Each of the compounds to which calpain-1 was not added was used as a control.\nTo evaluate an influence of a R^12-L-O— group on the reactivity of each of compounds having the same amino acids with calpain-1, the fluorescence assays of Compounds 37 to 66 with calpain-1 were performed in accordance with the above-mentioned method. Specifically, 17.4 U/mL of calpain-1 and 5 mM CaCl2 were added to a 50 mM TRIS buffer (pH: 7.4, 2 mM EGTA, 2 mM DTE) containing 10 μM of each of the synthesized fluorescent probes to perform an enzyme reaction at 37° C., followed by the measurement of an increase in fluorescence intensity of each of the compounds 10 minutes after the addition of calpain-1."}, "calpain": {"system": "calpain", "experiment": "Rabbit NMDA injury model, ocular fundus imaging", "assay_type": "in vivo", "conditions": "for staining of nerve cells with HMRG in ocular fundus: 30, 45 and 60 minutes after probe into the eye (Compound 19 18.3 μM 19 μL; Compound 16 20 μM 19 μl or 38 μl)", "procedure": "Black Dutch rabbits were each subjected to general anesthesia with a mixed liquid of ketamine and xylazine. N-Methyl-D-aspartate (NMDA) (12 mM, 50 μL) or PBS was administered into an eye of the rabbit. 9 Hours after that, the rabbit was anesthetized with a mixed liquid of ketamine and xylazine again, and Compound 19 (18.3 μM, 19 μL), Compound 16 (20 μM, 19 μl), or Compound 16 (20 μM, 38 μl) was administered into the eye. Images of an ocular fundus were taken with Mirante (a confocal scanning diode laser ophthalmoscope manufactured by Nidek Co., Ltd.) before the administration of each of the compounds and after the lapse of a predetermined time from the administration."}}, "data": [{"smiles": "CSCC[C@H](NC(=O)[C@H](CC(C)C)NC(C)=O)C(=O)Nc1ccc2c(c1)Oc1cc(N)ccc1C21OCc2ccccc21", "note": "(stereo partly shown) [Compound 16, reference compound]", "values": [{"measurement": "calpain activity imaging in SH-SY5Y cells", "setting": "SH-SY5Y cells", "value": "enabled the observation of calpain activity in the SH-SY5Y cells"}, {"measurement": "change in fluorescence intensity with time by calpain-1", "setting": "[1]; FIG. 4", "value": "functioned as a fluorescent probe for calpain-1"}, {"measurement": "number of HMRG-positive cells in PBS rabbits compared to NMDA rabbits", "setting": "calpain; Compound 19 (19 μL) and Compound 16 (38 μl), FIG. 23", "value": "significantly reduced"}, {"measurement": "staining of nerve cells with HMRG in ocular fundus", "setting": "calpain; rabbits administered NMDA (12 mM, 50 μL)", "value": "many nerve cells were clearly stained with HMRG"}, {"measurement": "staining of nerve cells with HMRG in ocular fundus", "setting": "calpain; rabbits administered PBS", "value": "substantially no staining of the nerve cells with HMRG"}]}, {"smiles": "CCC(=O)N[C@@H](CC(C)C)C(=O)N[C@@H](CCSC)C(=O)Nc1ccc2c(c1)Oc1cc(N)ccc1C21OCc2ccccc21", "note": "(stereo partly shown) [Compound 17]", "values": [{"measurement": "increase in fluorescence intensity 10 minutes after the addition of calpain-1", "setting": "[1]", "value": "reduced in fluorescence intensity as compared to Compound 16"}]}, {"smiles": "CCCC(=O)N[C@@H](CC(C)C)C(=O)N[C@@H](CCSC)C(=O)Nc1ccc2c(c1)Oc1cc(N)ccc1C21OCc2ccccc21", "note": "(stereo partly shown) [Compound 18]", "values": [{"measurement": "increase in fluorescence intensity 10 minutes after the addition of calpain-1", "setting": "[1]", "value": "reduced in fluorescence intensity as compared to Compound 16"}]}]}
